The values below come from patent US8507470B2, “Substituted arylamide oxazepinopyrimidone derivatives” (Sanofi, priority 2008, dated 2013).

Where a name gives a salt, the structure may show the parent alone.

One series concerns the target GSK3β (Homo sapiens, UniProt P49841). Put plainly: Inhibitory activity against GSK3β (33P-ATP phosphorylation of prephosphorylated GS1 peptide). In kind it is biochemical. As to conditions: protocol 4: commercial GSK3beta (Millipore), 7.5 μM GS1 peptide, 10 μM ATP, 90 minutes at room temperature. On the procedure: Test Example: Inhibitory Activity of the Medicament of the Present Invention against GSK3β: Four different protocols can be used. In a first protocol: 7.5 μM of prephosphorylated GS1 peptide and 10 μM ATP (containing 300,000 cpm of ^33P-ATP) were incubated in 25 mM Tris-HCl, pH 7.5, 0.6 mM DTT, 6 mM MgCl2, 0.6 mM EGTA, 0.05 mg/ml BSA buffer for 1 hour at room temperature in the presence of GSK3beta (total reaction volume: 100 microliters). In a second protocol: 4.1 μM of prephosphorylated GS1 peptide and 42 μM ATP (containing 260,000 cpm ^33P-ATP) were incubated in 80 mM Mes-NaOH, pH 6.5, 1 mM Mg acetate, 0.5 mM EGTA, 5 mM 2-mercaptoethanol, 0.02% Tween 20, 10% glycerol buffer for 2 hours at room temperature in the presence of GSK3beta. In a third protocol: 7.5 μM of prephosphorylated GS1 peptide and 10 μM ATP (containing 300,000 cpm of ^33P-ATP) were incubated in 50 mM Hepes, pH 7.2, 1 mM DTT, 1 mM MgCl2, 1 mM EGTA, 0.01% Tween 20 buffer for one hour at room temperature in the presence of GSK3beta (total reaction volume: 100 microliters). In a fourth protocol: 7.5 μM of prephosphorylated GS1 peptide and 10 μM ATP (containing 300,000 cpm of ^33P-ATP) were incubated in 50 mM Hepes, pH 7.2, 1 mM DTT, 1 mM MgCl2, 1 mM EGTA, 0.01% Tween 20 buffer for 90 minutes at room temperature in the presence of commercial GSK3beta (Millipore) (total reaction volume: 100 microliters). Inhibitors were solubilised in DMSO (final solvent concentration in the reaction medium, 1%). The reaction was stopped with 100 microliters of a solution made of 25 g polyphosphoric acid (85% P2O5), 126 ml 85% H3PO4, H2O to 500 ml and then diluted to 1:100 before use. An aliquot of the reaction mixture was then transferred to Whatman P81 cation exchange filters and rinsed with the solution described above. Incorporated ^33P radioactivity was determined by liquid scintillation spectrometry. The phosphorylated GS-1 peptide had the following sequence: NH2-[…](P)EDEE-COOH.(Woodgett, J. R. (1989) Analytical Biochemistry 180, 237-241.

Chain of GSK3β (P49841 whole entry): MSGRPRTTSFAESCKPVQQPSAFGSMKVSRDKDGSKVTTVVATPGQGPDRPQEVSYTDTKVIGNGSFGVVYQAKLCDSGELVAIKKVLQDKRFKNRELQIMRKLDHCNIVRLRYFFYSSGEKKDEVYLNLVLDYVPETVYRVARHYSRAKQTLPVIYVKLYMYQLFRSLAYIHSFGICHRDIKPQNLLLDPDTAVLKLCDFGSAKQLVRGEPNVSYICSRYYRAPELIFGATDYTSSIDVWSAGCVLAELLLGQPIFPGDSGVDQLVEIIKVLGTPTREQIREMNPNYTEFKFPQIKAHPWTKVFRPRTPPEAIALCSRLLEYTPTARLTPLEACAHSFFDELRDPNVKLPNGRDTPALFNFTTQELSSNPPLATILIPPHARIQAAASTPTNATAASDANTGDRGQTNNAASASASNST

For `COc1ccc(Cl)cc1C(=O)NC1COCCn2c1nc(-c1ccncc1)cc2=O` (racemic) [compound No. 19, (+/−)-5-Chloro-2-methoxy-N-(4-oxo-2-pyridin-4-yl-5,6,8,9-tetrahydro-4H-7-oxa-1,4a-diaza-benzocyclohepten-9-yl)-benzamide], the melting point lay in the range of 235 to 237 °C. This molecule also came in with an IC50 against GSK3β of 2 nM.
`COc1ccccc1CNC1COCCn2c1nc(-c1ccncn1)cc2=O` (racemic) [compound No. 21, (+/−)-9-(2-Methoxy-benzylamino)-2-pyrimidin-4-yl-5,6,8,9-tetrahydro-7-oxa-1,4a-diaza-benzocyclohepten-4-one] registered an IC50 against GSK3β of 41 nM.
For the molecule `COc1ccc(S(N)(=O)=O)cc1C(=O)NC1COCCn2c1nc(-c1ccncn1)cc2=O` (racemic) [compound No. 7, (+/−)-2-Methoxy-N-(4-oxo-2-pyrimidin-4-yl-5,6,8,9-tetrahydro-4H-7-oxa-1,4a-diaza-benzocyclohepten-9-yl)-5-sulfamoyl-benzamide], the melting point was 257 to 259 °C. The molecule also came in with an IC50 against GSK3β of 0.5 nM.
Molecule `COc1ccccc1CNC1COCCn2c1nc(-c1ccncn1)cc2=O` (racemic) (as salt: HCl) [compound No. 21, (+/−)-9-(2-Methoxy-benzylamino)-2-pyrimidin-4-yl-5,6,8,9-tetrahydro-7-oxa-1,4a-diaza-benzocyclohepten-4-one] came in with a melting point of 254 to 256 °C.
In turn, `CC(=O)Oc1ccccc1C(=O)NC1COCCn2c1nc(-c1ccncn1)cc2=O` (racemic) [compound No. 14, (+/−)-Acetic acid 2-(4-oxo-2-pyrimidin-4-yl-5,6,8,9-tetrahydro-4H-7-oxa-1,4a-diaza-benzocyclohepten-9-ylcarbamoyl)-phenyl ester] yielded a melting point of 202 to 204 °C. This molecule showed a half-inhibitory concentration (IC50) against GSK3β of 10 nM.

What is called melting point is the temperature, or range, at which the solid turns liquid. One may read the IC50 as the point on the concentration scale where inhibition reaches its midpoint. Higher therefore signals weaker potency.
